Ends that are not written are not given here.
Key:
[1] = tested on: New Zealand White female rabbits; experiment: Rabbit immunizations with BI400-B vaccine, direct ELISA of sera; type: in vivo
Experimental: New Zealand White female rabbits (n=3) was immunized intradermally at weeks 0, 2 & 6 with 1 ml of BI400-B vaccine consisting of 500 μg BI400-B in 50% V/V Freund's adjuvant (i.e. Complete Freund's adjuvant used for priming, followed by boostings with Incomplete Freund's adjuvant). Individual blood serum was isolated for ELISA.
50-100 μl of BI400-B (pre-incubated in Coating buffer—0.05M Na2CO3 pH9.6; denoted CB—in cold at 16 μg/ml for each peptide 1-3 days prior to coating) or just CB (background control) is used for coating wells in microtiter plates at 4° C. overnight. The microtiter plates are then washed 3× with washing buffer (PBS+1% v/v Triton-X100; denoted WB), followed by 2 h blocking at room temperature (RT) with 200 μl/well of blocking buffer (PBS+1% w/v BSA). Plates are then washed 3× with WB, followed by 1 h incubation at 37° C. with 50-70 ul/well of added human (or rabbit) sera (serial dilutions ranging from 1:1-1:250 in dilution buffer (PBS+1% v/v Triton-X100+1% w/v BSA; denoted DB)). Plates are then washed 6× with WB, followed by 1 h incubation at RT with 70 μl/well of Alkaline Phosphatase-conjugated Protein G (3 μg/ml in DB; Calbiochem 539305). […] Plates are finally quenched by adding 100 μl/well of Quench solution (0.1M TRIS+0.1M EDTA+0.5M NaOH+0.01% w/v NaN3; pH14), followed by ELISA reader (ASYS UVM 340) at 550 nm.

BALB/c mice = experiment: Serum IgG ELISA after vaccination of BALB/c mice; type: in vivo
Experimental: 100 μl of antigen as indicated (pre-incubated in Coating buffer—0.05M Na2CO3 pH9.6; denoted CB—in cold at 8 μg/ml 1-3 days) or just CB (background control) was used for coating wells in microtiter plates at 4° C. The microtiter plates are then washed 3× with washing buffer (PBS+1% v/v Triton-X100; denoted WB), followed by 2 h blocking at room temperature (RT) with 200 μl/well of blocking buffer (PBS+1% w/v BSA). Plates are then washed 3× with WB, followed by 1 h incubation at 37° C. with 50-70 ul/well of added human (or rabbit or sheep) sera (serial dilutions ranging from 1:5-1:250 in dilution buffer (PBS+1% v/v Triton-X100+1% w/v BSA; denoted DB)). […] Plates are finally quenched by adding 100 μl/well of Quench solution (0.1M TRIS+0.1M EDTA+0.5M NaOH+0.01% w/v NaN3; pH14), followed by a measurement with a ELISA reader (ASYS UVM 340) at 550 nm. […]

sheep = experiment: Serum IgG ELISA after vaccination of sheep; type: in vivo; settings: for Dilution of serum three times background IgG response directed against BI100-cg2 antigen: 500 μg peptide in PBS; for Immune response in vaccinated sheep (in words): by itself or with two different standard adjuvants
Experimental: 100 μl of antigen as indicated (pre-incubated in Coating buffer—0.05M Na2CO3 pH9.6; denoted CB—in cold at 8 μg/ml 1-3 days) or just CB (background control) was used for coating wells in microtiter plates at 4° C. The microtiter plates are then washed 3× with washing buffer (PBS+1% v/v Triton-X100; denoted WB), followed by 2 h blocking at room temperature (RT) with 200 μl/well of blocking buffer (PBS+1% w/v BSA). Plates are then washed 3× with WB, followed by 1 h incubation at 37° C. with 50-70 ul/well of added human (or rabbit or sheep) sera (serial dilutions ranging from 1:5-1:250 in dilution buffer (PBS+1% v/v Triton-X100+1% w/v BSA; denoted DB)). Plates are then washed 6× with WB, followed by 1 h incubation at RT with 70 μl/well of Alkaline Phosphatase-conjugated Protein G (3 μg/ml in DB; Calbiochem 539305) or goat anti-mouse IgG biotin (1 μg/ml, Southern Biotech, 1030-08. In case of the goat anti-mouse IgG biotin, the plates were washed one extra step as described, before addition of 100 μl Streptavidin-Alkaline-Phosphatase (1 μg/ml, Sigma Aldrich, S289) and incubated 1 hour at RT. Plates are then washed 6× with WB, followed by 10-60 min incubation at room temperature with 100 μl/well of 0.3% w/v of Phenophtalein monophosphate (Sigma P-5758). Plates are finally quenched by adding 100 μl/well of Quench solution (0.1M TRIS+0.1M EDTA+0.5M NaOH+0.01% w/v NaN3; pH14), followed by a measurement with a ELISA reader (ASYS UVM 340) at 550 nm. The strength of the sera, i.e. the magnitude of the humoral immune response, is then reported as the dilution of sera that result in the described Optical Density (OD) value, or the OD value at the indicated dilution of sera.
The vaccination of sheep was done with 500 μg of peptide in PBS with the following adjuvants: ISA51 (vaccination week 1, 2, 3, 4, serum from week 6) and Freunds Adjuvant (vaccination weeks 1, 12, 26, serum from week 28). […] This indicate that the constructs can be combined with different adjuvants and induce an IgG response, a signal that an immunological memory has been elicited in sheep.

human PBMC = experiment: Influenza specific M2e response by ELISPOT assay (B cell response in stimulated PBMC); type: cell-based
[2] = Freunds Adjuvant, vaccination weeks 1, 12, 26, serum from week 28
[3] = ISA51, vaccination week 1, 2, 3, 4, serum from week 6

Substance	Dilution of serum three times background IgG response directed against BI100-cg2 antigen (sheep; [2])	Dilution of serum three times background IgG response directed against BI100-cg2 antigen (sheep; [3])	Dilution of serum three times background IgG response directed against BI100-cg2 antigen (sheep; adjuvant None)	Immune response in vaccinated sheep (in words) (sheep)	other results
GAKRRVVGGCGGAKRRVVQREKRAGEREKRA (SEQ ID NO: 121) | GKGGIEEEGGRDRDRGGEQDRDR (SEQ ID NO: 122) (thioether (positions not given here); not fully specified (bridges)) [BI400-B, peptides linked via Cys and Lys residues (thioether)]	–	–	–	–	Character of antibodies generated in animal models (in words) ([1]; animal models): comparable with antibodies elicited in natural HIV infection; Antibody response after immunization (in words) ([1]; rabbits, intradermal 500 μg in Freund's adjuvant at weeks 0, 2 & 6): elicit an efficient antibody response
RRGNWAKVLKNWAKVI (SEQ ID NO: 130) | RRGLLADARVGCGSGADRVCS (SEQ ID NO: 131) (linker (positions not given here) via sulpho‑SMCC; also: sulpho-SMCC linker between Lys and Cys, places not given here) [BI350-1mod1, lysine of first peptide linked to cysteine of second peptide by a sulpho-SMCC linker]	–	–	–	–	Immune response in vaccinated mice (in words) (BALB/c mice; IgG specific): induced a specific immune response; Serum IgG response (OD) directed against vaccine antigen, Mean (n = 6) (BALB/c mice; s.c. 100 μg peptide + Alhydrogel at weeks 1, 3, 7, serum from week 9): 0.26 OD
[RR][SL(Nle)TDIETP][GCG][IDTPIR][G][TPIBQDWG] [BI100-CG]	11000	125	25	induced an immune response	–
[R][SLZTDIETP][Dpr(Aoa)][IDTPIR][G][TPIBQDWG] | [RR][IDTPIR][GG][TPI(Har)QEW][Dpr(Ser)][SLZTDIETPG] [BI150-2mod]	–	–	–	–	IgG specific B cell response in human PBMC (in words) (human PBMC; IgG): recognised by human memory cells; IgM B cell proliferation in human PBMC (in words) (human PBMC; IgM): able to induce proliferation of IgM B cells
[WWGC][TDIET][CG][IDTPIR][G][TPIBQDWG] [BI100CGcyc]	125	25	25	induced an immune response	–
